Experimental data published in patent US11672841B2, “Methods for treating heart disease in a subject with Friedreich's ataxia by an aromatic-cationic peptide” (Stealth BioTherapeutics Inc., priority 2013, dated 2023).
Non-standard residues stand in square brackets, D forms with d. Residues, ends and D or L forms follow the SMILES beside them. No end group written: not given here. Dmt = Cc1cc(O)cc(C)c1C[C@H](N)C(=O)O

Key:
[1] = test system: several mammalian cell types; settings: energy-independent manner (Zhao, et al., 2003); cited from earlier work
[2] = test system: fibroblasts from Friedreich's ataxia (FRDA) patients; settings: 1-10 μM peptide 24 hours, then 5 μm Fe/HQ for 5 hours
Protocol: Iron with hydroquinone (HQ) induces oxidative stress in cells because HQ forms a lipophilic chelate with iron and rapidly transfers the metal across the normally impermeable plasma membrane.
After 24 hours, the media is changed and the cells are treated with 5 μm Fe/HQ for 5 hours.

[3] = target: mu-opioid receptor (Homo sapiens, UniProt P35372); test: Mu-opioid receptor agonist activity; settings: stated without a test
Sequence of mu-opioid receptor (P35372 whole entry, species assumed): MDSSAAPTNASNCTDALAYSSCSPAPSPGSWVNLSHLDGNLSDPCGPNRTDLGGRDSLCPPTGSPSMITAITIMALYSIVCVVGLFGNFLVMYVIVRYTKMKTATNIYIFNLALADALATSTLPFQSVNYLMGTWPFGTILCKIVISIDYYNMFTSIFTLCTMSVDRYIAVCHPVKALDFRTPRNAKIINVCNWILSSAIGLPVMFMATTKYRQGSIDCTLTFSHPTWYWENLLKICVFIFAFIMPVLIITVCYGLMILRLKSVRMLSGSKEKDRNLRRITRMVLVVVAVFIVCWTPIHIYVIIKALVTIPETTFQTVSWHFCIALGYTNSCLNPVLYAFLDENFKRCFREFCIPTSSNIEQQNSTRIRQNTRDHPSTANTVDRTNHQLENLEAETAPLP

Molecule	mu-opioid receptor agonist activity [3]	other results
2′,6′-Dmt-D-Arg-Phe-Lys-NH2	–	penetration of the plasma membrane [1]: readily penetrates the plasma membrane
Cc1cc(O)cc(C)c1C[C@H](NC(=O)[C@H](N)CCCNC(=N)N)C(=O)N[C@@H](CCCCN)C(=O)N[C@@H](Cc1ccccc1)C(N)=O [D-Arg-2′,6′-Dmt-Lys-Phe-NH2] (H-[dR][Dmt]KF-NH2)	–	survival and cytotoxicity by morphologic appearance [2]: reduced evidence of cytotoxicity
F[dR]FK-NH2	does not have mu-opioid receptor agonist activity	–
Tyr-D-Arg-Phe-Lys-NH2	has mu-opioid receptor agonist activity	–
